According to the supplement of paper PMC7840683:
Where a name gives a salt, the structure may show the parent alone.

Tested on: HepaRG
Assay: LDH release cytotoxicity, % of total lysis control; higher = more cytotoxic
Conditions: 48 h
Summary of the method: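 The CytoTox-ONE kit was used to read LDH in 50 µL spent medium as resorufin fluorescence on a Tecan Safire, with 0.1% Triton X added to total lysis wells. Beforehand, single-lot HepaRG cells on collagen I-coated 96-well plates had been exposed in duplicate for 48 h to eight-point half-log series (top 100 µM) in serum-free induction medium containing 0.5% DMSO. Percent cytotoxicity was normalized against on-plate vehicle and total lysis controls and averaged over duplicates.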

COP(=O)(OC)OC=C(Cl)Cl [Dichlorvos]
Conditions	LDH release cytotoxicity [%]
0.03162 µM	-0.581
0.1 µM	-0.968
0.3162278 µM	-1.1
1 µM	-0.845
3.16228 µM	-0.267
10 µM	-0.149
31.6228 µM	-0.147
100 µM	2.09

O=C(O)Cc1ccccc1Nc1c(Cl)cccc1Cl [Diclofenac sodium]
Conditions	LDH release cytotoxicity [%]
0.03162 µM	0.371
0.1 µM	-0.605
0.3162278 µM	-1.36
1 µM	-0.678
3.16228 µM	-0.378
10 µM	-0.578
31.6228 µM	1.19
100 µM	12

Nc1c(Cl)cc([N+](=O)[O-])cc1Cl [Dicloran]
Conditions	LDH release cytotoxicity [%]
0.03162 µM	-0.748
0.1 µM	-1.57
0.3162278 µM	-1.57
1 µM	-2.63
3.16228 µM	-1.28
10 µM	-1.61
31.6228 µM	-0.997
100 µM	0.0971

CCOc1nc(F)cc2nc(S(=O)(=O)Nc3c(Cl)cccc3Cl)nn12 [Diclosulam]
Conditions	LDH release cytotoxicity [%]
0.01581 µM	-5.4
0.05 µM	-5.8
0.1581139 µM	-6.31
0.5 µM	-6.08
1.5811388 µM	-6.09
5 µM	-5.21
15.8114 µM	-4.75
50 µM	-3.63

OC(c1ccc(Cl)cc1)(c1ccc(Cl)cc1)C(Cl)(Cl)Cl [Dicofol]
Conditions	LDH release cytotoxicity [%]
0.03162 µM	-4.47
0.1 µM	-4.19
0.3162278 µM	-3.36
1 µM	-3.88
3.16228 µM	-3.71
10 µM	-3.02
31.6228 µM	-3.41
100 µM	-0.0654

COP(=O)(OC)OC(C)=CC(=O)N(C)C [Dicrotophos]
Conditions	LDH release cytotoxicity [%]
0.03162 µM	-2.01
0.1 µM	-1.23
0.3162278 µM	-1.47
1 µM	-2.46
3.16228 µM	-1.22
10 µM	-0.345
31.6228 µM	1.7
100 µM	-0.538

CC(C)(OOC(C)(C)c1ccccc1)c1ccccc1 [Dicumyl peroxide]
Conditions	LDH release cytotoxicity [%]
0.03162 µM	-3.28
0.1 µM	-3.3
0.3162278 µM	-1.36
1 µM	-1.54
3.16228 µM	-0.973
10 µM	-1.43
31.6228 µM	-0.756
100 µM	-0.201

C1CCC(SSC2CCCCC2)CC1 [Dicyclohexyl disulfide]
Conditions	LDH release cytotoxicity [%]
0.03162 µM	-0.985
0.1 µM	-0.62
0.3162278 µM	-0.405
1 µM	-1.38
3.16228 µM	-2
10 µM	-0.29
31.6228 µM	2.64
100 µM	68.4

CCCCCCCCCC[N+](C)(C)CCCCCCCCCC [Didecyldimethylammonium chloride]
Conditions	LDH release cytotoxicity [%]
0.0317809 µM	-1.08
0.1005 µM	-0.913
0.317809 µM	-0.501
1.005 µM	-2.08
3.17809 µM	-0.414
10.05 µM	0.276
31.7809 µM	0.202
100.5 µM	1.33

ClC1=C(Cl)C2(Cl)C3C4CC(C5OC45)C3C1(Cl)C2(Cl)Cl (configuration not stated) [Dieldrin]
Conditions	LDH release cytotoxicity [%]
0.03162 µM	-0.556
0.1 µM	-1.67
0.3162278 µM	-1.33
1 µM	-1.987
3.16228 µM	-2.14
10 µM	-0.0152
31.6228 µM	-0.473
100 µM	2.21

OCCNCCO [Diethanolamine]
Conditions	LDH release cytotoxicity [%]
0.031623 µM	-1.15
0.1 µM	-1.45
0.316228 µM	-1.83
1 µM	-2.4
3.16228 µM	-2.41
10 µM	-1.71
31.6228 µM	-0.726
100 µM	0.309

CCOC(=O)CCC(=O)OCC [Diethyl butanedioate]
Conditions	LDH release cytotoxicity [%]
0.03162 µM	-2.6
0.1 µM	-1.75
0.3162278 µM	-2.02
1 µM	-1.99
3.16228 µM	-0.438
10 µM	-0.384
31.6228 µM	16
100 µM	83.2

CCOC(=O)c1ccccc1C(=O)OCC [Diethyl phthalate]
Conditions	LDH release cytotoxicity [%]
0.03162 µM	-0.196
0.1 µM	-0.436
0.3162278 µM	-0.318
1 µM	-1.12
3.16228 µM	-0.475
10 µM	-1.03
31.6228 µM	-0.196
100 µM	5.77

CCOS(=O)(=O)OCC [Diethyl sulfate]
Conditions	LDH release cytotoxicity [%]
0.03162 µM	-1.93
0.1 µM	-1.47
0.3162278 µM	-1.68
1 µM	-2.05
3.16228 µM	-1.61
10 µM	-1.77
31.6228 µM	-1.5
100 µM	0.71

O=C(OCCOCCOC(=O)c1ccccc1)c1ccccc1 [Diethylene glycol dibenzoate]
Conditions	LDH release cytotoxicity [%]
0.03162 µM	-0.909
0.1 µM	-1.337
0.3162278 µM	-0.774
1 µM	-1.03
3.16228 µM	-1.1
10 µM	-0.826
31.6228 µM	-1.09
100 µM	0.38

COCCOCCOC [Diethylene glycol dimethyl ether]
Conditions	LDH release cytotoxicity [%]
0.03162 µM	-0.901
0.1 µM	-2.67
0.3162278 µM	-2.41
1 µM	-2.68
3.16228 µM	-1.55
10 µM	-0.488
31.6228 µM	-0.826
100 µM	0.75

COCCOCCO [Diethylene glycol monomethyl ether]
Conditions	LDH release cytotoxicity [%]
0.03162 µM	-0.428
0.1 µM	-2.12
0.3162278 µM	-0.798
1 µM	-1.35
3.16228 µM	-0.999
10 µM	-1.13
31.6228 µM	0.0217
100 µM	1.02

OCCOCCO [Diethylene glycol]
Conditions	LDH release cytotoxicity [%]
0.03162 µM	-0.757
0.1 µM	-1.02
0.3162278 µM	-1.03
1 µM	-0.601
3.16228 µM	-1.16
10 µM	-0.563
31.6228 µM	-0.731
100 µM	0.422

CCC(=C(CC)c1ccc(O)cc1)c1ccc(O)cc1 [Diethylstilbestrol]
Conditions	LDH release cytotoxicity [%]
0.031623 µM	-1.08
0.1 µM	-0.295
0.316228 µM	-1.31
1 µM	-2.18
3.16228 µM	-2.64
10 µM	-2.24
31.6228 µM	-0.817
100 µM	0.74
